Results taken from patent US7105162B1, “Pharmaceutical composition for immunomodulation based on peptides and adjuvants” (Boehringer Ingelheim International GmbH, priority 1996, dated 2006).

Key:
P388D1 cells = assay: Permeabilisation of the cell membrane: LDH release (Cytotox 96); type: cell-based, murine; settings: isotonic conditions; FIG. 12
Method: Peptides can be absorbed by APCs by means of specific mechanisms such as macropinocytosis or receptor-mediated endocytosis (Lanzavecchia, 1996). An alternative mechanism may consist in the polyamino acids making the cell membrane permeable and in this way allowing peptides to diffuse from the medium into the cytoplasm. • a) The possible permeabilisation of the cell membrane was tested by measuring the release of the cytoplasmic enzyme lactate dehydrogenase (LDH) after the incubation of P388D1 cells with polyamino acids (polylysine or polyarginine) under isotonic conditions using the commercially available kit (Cytotox 96, Promega, Madison, Wis., USA) in accordance with the manufacturer's instructions. […] When samples treated with polyamino acids alone were compared, no difference in the release of LDH was found compared with treatment with a mixture of polylysine or polyarginine with peptide. […] The fluorescence emitted by FITC is strongly pH-dependent. In an environment with pH conditions such as those found in endosomes, fluorescence is suppressed. Therefore, FITC-labelled peptides which are absorbed by the cells into the endosomes show reduced fluorescence. When monensin is added, the low pH of the endosomes is neutralised, leading to a measurably greater fluorescence of the internalised FITC-labelled peptides.

APCs = assay: Internalisation of FITC-labelled peptide (monensin treatment, 4° C. versus 37° C.), throughflow cytometry; type: cell-based; settings: incubated at 37° C., then 50 μM monensin at 4° C.; FIG. 13
Method: Peptides can be absorbed by APCs by means of specific mechanisms such as macropinocytosis or receptor-mediated endocytosis (Lanzavecchia, 1996). An alternative mechanism may consist in the polyamino acids making the cell membrane permeable and in this way allowing peptides to diffuse from the medium into the cytoplasm. • a) The possible permeabilisation of the cell membrane was tested by measuring the release of the cytoplasmic enzyme lactate dehydrogenase (LDH) after the incubation of P388D1 cells with polyamino acids (polylysine or polyarginine) under isotonic conditions using the commercially available kit (Cytotox 96, Promega, Madison, Wis., USA) in accordance with the manufacturer's instructions. […] The fluorescence emitted by FITC is strongly pH-dependent. In an environment with pH conditions such as those found in endosomes, fluorescence is suppressed. Therefore, FITC-labelled peptides which are absorbed by the cells into the endosomes show reduced fluorescence. When monensin is added, the low pH of the endosomes is neutralised, leading to a measurably greater fluorescence of the internalised FITC-labelled peptides.
The cells were incubated with a mixture of polyarginine (average molecular weight range 100,000, chain length 490) and fluorescence-labelled peptide at 4° C. or 37° C. […]

## LFEAIEGFI [FITC-labelled model peptide antigen, MHC Kd-restricted, derived from influenza haemagglutinin]
P388D1 cells
  LDH released from cells: no measurable LDH-activity
APCs
  change in fluorescence after monensin treatment: only a slight increase in fluorescence
